# In patent US20050255537A1, “Method for monitoring treatment with a parathyroid hormone” (priority 1999, published 2005):
# Test system: postmenopausal osteoporotic women
# Experiment: GHAC efficacy trial (intent to treat BMD, fractures)
# Type: in vivo, human
# Settings: 20 μg/day, 21 months
# Method: • Number of Subjects: • rhPTH(1-34): 1093 enrolled, 848 finished. • Placebo: 544 enrolled, 447 finished. • Diagnosis and Inclusion Criteria: Women ages 30 to 85 years, postmenopausal for a minimum of 5 years, with a minimum of one moderate or two mild atraumatic vertebral fractures. • Dosage and Administration: • Test Product (blinded) • rhPTH(1-34): 20 μg/day, given subcutaneously • rhPTH(1-34): 40 μg/day, given subcutaneously • Reference Therapy (blinded) • Placebo study material for injection • Duration of Treatment: • rhPTH(1-34): 17-23 months (excluding 6-month run-in phase) • Placebo: 17-23 months (excluding 6-month run-in phase) • Criteria for Evaluation: Spine x-ray; serum biological markers (calcium, bone-specific alkaline phosphatase, procollagen I carboxy-terminal propeptide); urine markers (calcium, N-telopeptide, free deoxypyridinoline); 1,25-dihydroxyvitamin D; bone mineral density: spine, hip, wrist, and total body: height; population pharmacokinetics; bone biopsy (selected study sites).
# Population pharmacodynamic analyses were undertaken to evaluate the time course of the relationships between efficacy measures and LY333334 dose or LY333334 concentrations. […] As a part of this assessment, a population placebo-response model describing the change in BMD in patients randomly assigned to placebo (supplemented with calcium and vitamin D) was first developed. […]
smiles,measurement,value
CC[C@H](C)[C@H](NC(=O)[C@H](CCC(=O)O)NC(=O)[C@H](CO)NC(=O)[C@@H](NC(=O)[C@@H](N)CO)C(C)C)C(=O)N[C@@H](CCC(N)=O)C(=O)N[C@@H](CC(C)C)C(=O)N[C@@H](CCSC)C(=O)N[C@@H](Cc1cnc[nH]1)C(=O)N[C@@H](CC(N)=O)C(=O)N[C@@H](CC(C)C)C(=O)NCC(=O)N[C@@H](CCCCN)C(=O)N[C@@H](Cc1cnc[nH]1)C(=O)N[C@@H](CC(C)C)C(=O)N[C@@H](CC(N)=O)C(=O)N[C@@H](CO)C(=O)N[C@@H](CCSC)C(=O)N[C@@H](CCC(=O)O)C(=O)N[C@@H](CCCN=C(N)N)C(=O)N[C@H](C(=O)N[C@@H](CCC(=O)O)C(=O)N[C@@H](Cc1c[nH]c2ccccc12)C(=O)N[C@@H](CC(C)C)C(=O)N[C@@H](CCCN=C(N)N)C(=O)N[C@@H](CCCCN)C(=O)N[C@@H](CCCCN)C(=O)N[C@@H](CC(C)C)C(=O)N[C@@H](CCC(N)=O)C(=O)N[C@@H](CC(=O)O)C(=O)N[C@H](C(=O)N[C@@H](Cc1cnc[nH]1)C(=O)N[C@@H](CC(N)=O)C(=O)N[C@@H](Cc1ccccc1)C(=O)O)C(C)C)C(C)C [LY333334],actual increase in femoral neck BMD from intent to treat analyses,2.8%
same,actual increase in spine BMD from intent to treat analyses,9.7%
